What was measured:
[1] = test system: Veronica persica; experiment: Post-emergence action against weeds, greenhouse, visual scoring; type: in vivo; settings: 11 days after application
Description: (§1) Seeds or rhizome pieces of monocotyledonous and dicotyledonous weeds were placed in sandy loam soil in plastic pots, covered with soil and cultivated in a greenhouse under good growth conditions. Three weeks after sowing, the test plants were treated at the 2- to 4-leaf stage. The compounds according to the invention, formulated as wettable powders or as emulsion concentrates, were sprayed onto the green parts of the plants in various dosages at a water application rate of 100 to 800 I/ha (converted). After the test plants had been left to stand in the greenhouse for 10 to 28 days under optimum growth conditions, the effect of the preparations was scored visually in comparison to untreated controls.
(§2) 0%=no control 100%=complete control

[2] = test system: Polygonum convolvulus; experiment: as above; type: in vivo; settings: 11 days after application
Description: as §1, §2

COCCOCc1nc(C(F)(F)F)ccc1C(=O)C1C(=O)C2CCC(C2)C1=O (stereo not drawn) [Compound B3-5, 3-[[2-[(2-methoxyethoxy)methyl]-6-(trifluoromethyl)pyridin-3-yl]carbonyl]bicyclo[3.2.1]octane-2,4-dione]
Veronica persica Control in % ([1]; Table 2, 25 g of ai/ha): 20%

CCOc1cc(Cl)cc(CC)c1C1=C(O)C2(CCC(OC)CC2)NC1=O (stereo not drawn) [Compound B4-1, cis-3-(4-chloro-2-ethoxy-6-ethylphenyl)-4-hydroxy-8-methoxy-1-azaspiro[4.5]dec-3-en-2-one]
Polygonum convolvulus Control in % ([2]; Table 6, 7.5 g of ai/ha): 20%

CS(=O)(=O)c1ccc(C(=O)C2C(=O)CCCC2=O)c(Cl)c1COCC(F)(F)F [Compound B3-4, tembotrione]
Polygonum convolvulus Control in % ([2]; Table 1, 50 g of ai/ha): 45%

CCO/N=C(\CC)C1=C(O)CC(c2c(C)cc(C)cc2C)CC1=O (stereo not drawn) [Compound B2-8, tralkoxydim]
Polygonum convolvulus Control in % ([2]; Table 5, 150 g of ai/ha): 20%

CS(=O)(=O)c1ccc(C(=O)C2C(=O)CCCC2=O)c(Cl)c1COCC1CCCO1 (stereo not drawn) [Compound B3-3, tefuryltrione]
Polygonum convolvulus Control in % ([2]; Table 3, 100 g of active ingredient/ha): 15%

sodium salt of 2-iodo-N-[(4-methoxy-6-methyl-1,3,5-triazin-2-yl)carbamoyl]benzenesulfonamide [Compound A-2]
Veronica persica Control in % ([1]; Table 2, 2.5 g of ai/ha, 0%=no control, 100%=complete control): 5%
Polygonum convolvulus Control in % ([2]; Table 1, 2.5 g of ai/ha, 0%=no control, 100%=complete control): 10%
Polygonum convolvulus Control in % ([2]; Table 3, 2.5 g of active ingredient/ha): 20%
Polygonum convolvulus Control in % ([2]; Table 4, 2.5 g of active ingredient/ha): 0%
Polygonum convolvulus Control in % ([2]; Table 5, 2.5 g of ai/ha): 0%
Polygonum convolvulus Control in % ([2]; Table 6, 2.5 g of ai/ha): 0%

CCSC(C)CC1CC(=O)C(/C(CC)=N/OC/C=C/Cl)=C(O)C1 (stereo not drawn) [Compound B2-3, clethodim]
Polygonum convolvulus Control in % ([2]; Table 4, 50 g of active ingredient/ha): 20%
